Reference: patent US4791215A, “Derivatives of glutamic acid and aspartic acid” (priority 1984, dated 1988)
Where “and” joins values, the source holds several entries; their conditions need not be identical. Equal values may be shown once.

Key:
morphine analgesia = test: Increase in analgesia of morphine, Tail Flick Test (Experiment 1); type: in vivo, rats; settings: for percentage variation of latency of pain sensation / M (10-90) ± SE, mean percentage variation of latency: compound 10 mg/kg i.p. + morphine 2 mg/kg; for M (10-90) ± SE, mean percentage variation of latency: mean 10-90 min; for Power ratio with respect to morphine alone: rat, in vivo
Method in brief: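 Non-fasted male rats (150-200 g); a tail point is exposed to a 75 °C heat source and latency to tail movement recorded, 8 s cut-off. Readings taken before and 10, 20, 30, 45, 60 and 90 min after analgesic treatment; percentage variation calculated per animal.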

[1] = tested on: tolerance induced by morphine; test: Antagonism to development of tolerance to repeated morphine HCl, Tail Flick Test (Experiment 5); settings: compound 10 mg/kg + morphine 5 mg/kg i.p.
Method: Experiment No. 5: Antagonism of several products of the invention to the development of tolerance induced in rats by the repeated administration of morphine HCl.
Several of the compounds of the invention were examined to determine their possible capacity to antagonise the development of tolerance induced by morphine. Groups of 6 male rats having a weight of about 200-250 grams were used.
At intervals of 24 hours from the first treatment (time 0) each animal (except the control group treated physiologically) received 5 mg/kg of morphine hydrochloride i.p. together with 10 mg/kg i.p. of the compounds indicated (with the exception of the group treated solely with morphine).
The determination of the pain threshold was effected 15', 30', 45' and 60' from the treatment by the Tail Flick Test.

[2] = tested on: CCK-8 induced contraction of guinea pig gall bladder; test: Anti-CCK activity on gall bladder strips in vitro; settings: for ED50 (concentration antagonising 50% of contracting effect of CCK-8): CCK-8 10 ng/ml
Method in brief: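 Longitudinal guinea pig gall bladder strips in Krebs at 32 °C, gassed with O2/CO2 95:5, were contracted with 10 ng/ml CCK-8. Isometric force was recorded across several compound concentrations, and ED50 was taken as the μg/ml concentration antagonising 50% of the CCK contraction.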

[3] = tested on: intestinal transit of carbon; test: Anti-spastic activity, vegetable carbon intestinal transit test; type: in vivo, mice; settings: Mus musculus, ip; read-out: antispastic activity ED50 (dose reducing intestinal transit of carbon by 50%)
Source text: The anti-spastic activity which the present compounds exert on the entire digestive system is also notable. Measured in mice with the vegetable carbon test (rate of transit through the stomach and the intestine), this activity is illustrated in the following table.
claimed administered intraperitoneally in mice. Values
expressed as the ED 50 in mg/kg, that is the dose which
reduces the intestinal transit of carbon by 50%

[4] = tested on: CCK-8 induced contraction of guinea pig gall bladder; test: Anti-CCK-8 activity on gall bladders in situ; type: in vivo; settings: for percentage inhibition of contracting effect of CCK-8: single experiments; for ED50: Cavia porcellus, iv, CCK-8 10 ng/kg i.v., read-out: ED50 (inhibition of 50% of contracting effect of CCK-8)
Method: In order to confirm the evidence of the studies in vitro several of the more interesting compounds were tested in vivo on guinea pig gall baldders in situ.
The method used is that described by Ljungberg (Svensk. Farm. Tidskr. 68, 351-354, 1964).
Guinea pigs having a weight of about 400 g, anaesthetised with urethane, were used; the substances under examination were administered intraveneously into the jugular vein.
The responses of the gall bladders to the substances under test were detected by means of a force transducer and recorded by means of a microdynamometer. The optimum contracting dose was chosen as 10 ng/kg of CCK-8. The antagonist compounds tested were administered in increasing doses so as to enable the calculation of an ED50 value, that is in the dose (in mg/kg i.v.) capable of inhibiting 50% of the contracting effect of 10 ng/kg i.v. of CCK-8.
The results obtained are given in Table 7 below, which gives the doses used and the effects obtained expressed as a percentage inhibition of the contracting effect of CCK-8 as well as the ED50 found.

biliary flow = test: Biliary flow (choleretic activity); type: in vivo, rat; settings: for ED50: Rattus norvegicus, iv, average over 2 hours, read-out: ED50 (dose causing 50% increase in biliary flow)
Method: The following experiment was carried out: a cannula was inserted in the bile duct of a rat anaesthetised with urethane, together with a small needle connected to a polythene tube, and the bile liquid was thus collected. The collection was carried out for one hour before the intravenous administration of the tested compounds and for a further two hours after administration, the samples collected at 30 minute intervals being weighed.
In order to prevent possible dehydration of the animals, 0.5 ml of physiological solution was administered at 30 minute intervals up to a total of 3 ml.

## CCCCN(CCCC)C(=O)CCC(NC(=O)c1ccc(Cl)c(Cl)c1)C(=O)O [Compound D-2]
Morphine analgesia; 10'
  percentage variation of latency of pain sensation: 85.6 ± 14.0%
Morphine analgesia; 20'
  percentage variation of latency of pain sensation: 98.1 ± 2.0%
Morphine analgesia; 30'
  percentage variation of latency of pain sensation: 95.9 ± 4.0%
Morphine analgesia; 45'
  percentage variation of latency of pain sensation: 96.6 ± 3.0%
Morphine analgesia; 60'
  percentage variation of latency of pain sensation: 95.5 ± 3.0%
Morphine analgesia; 90'
  percentage variation of latency of pain sensation: 87.5 ± 6.0%
Morphine analgesia
  M (10-90) ± SE, mean percentage variation of latency: 93.2 ± 5.3%
  Power ratio with respect to morphine alone: 3.12
[1]; 24 h
  percentage variation in latency time (Effect %): 45.73%
[1]; 48 h
  percentage variation in latency time (Effect %): 59.50%
[1]; 72 h
  percentage variation in latency time (Effect %): 51.52%
[1]; 96 h
  percentage variation in latency time (Effect %): 43.40%
[1]; 120 h
  percentage variation in latency time (Effect %): 37.60%
[1]; 144 h
  percentage variation in latency time (Effect %): 21.43%
[1]; 168 h
  percentage variation in latency time (Effect %): 29.75%
[1]; time 0
  percentage variation in latency time (Effect %): 74.14%
[2]
  ED50 (concentration antagonising 50% of contracting effect of CCK-8): > 200 µg/mL
[3]
  ED50: 50.7 mg/kg

## CCCN(CCC)C(=O)C(CCC(=O)O)NC(=O)c1ccc(C)c(C)c1 (stereo not drawn) [Compound C-30]
[4]; 30 mg/kg i.v.
  percentage inhibition of contracting effect of CCK-8: 82.1% and 92.5% and 79.5%
[4]
  ED50: 13.8 mg/kg
Biliary flow; 12.5 mg/kg i.v.
  % increase in biliary flow with respect to controls: +33.7%
Biliary flow; 25 mg/kg i.v.
  % increase in biliary flow with respect to controls: +60.2%
Biliary flow; 50 mg/kg i.v.
  % increase in biliary flow with respect to controls: +121.2%
Biliary flow; 100 mg/kg i.v.
  % increase in biliary flow with respect to controls: +197.8%
Biliary flow
  ED50: 18.5 mg/kg
Morphine analgesia; 10'
  percentage variation of latency of pain sensation: 69.9 ± 16%
Morphine analgesia; 20'
  percentage variation of latency of pain sensation: 100.0 ± 0%
Morphine analgesia; 30'
  percentage variation of latency of pain sensation: 95.2 ± 4.8%
Morphine analgesia; 45'
  percentage variation of latency of pain sensation: 91.8 ± 8%
Morphine analgesia; 60'
  percentage variation of latency of pain sensation: 100%
Morphine analgesia; 90'
  percentage variation of latency of pain sensation: 100.0 ± 0%
Morphine analgesia
  M (10-90) ± SE, mean percentage variation of latency: 92.8 ± 12%
  Power ratio with respect to morphine alone: 3.11
[1]; 24 h
  percentage variation in latency time (Effect %): 66.53% and 67.27%
[1]; 48 h
  percentage variation in latency time (Effect %): 50.61% and 67.31%
[1]; 72 h
  percentage variation in latency time (Effect %): 47.53% and 56.04%
[1]; 96 h
  percentage variation in latency time (Effect %): 29.65% and 49.48%
[1]; 120 h
  percentage variation in latency time (Effect %): 34.24% and 34.34%
[1]; 144 h
  percentage variation in latency time (Effect %): 26.97% and 27.50%
[1]; time 0
  percentage variation in latency time (Effect %): 74.51% and 44.52%
[2]
  ED50 (concentration antagonising 50% of contracting effect of CCK-8): 33.5 µg/mL
[3]
  ED50: 77.7 mg/kg

## CCCCCN(CCCCC)C(=O)C(CCC(=O)O)NC(=O)c1ccc(Cl)c(Cl)c1 (stereo not drawn) [Compound C-7]
[4]; 0.003 mg/kg i.v.
  percentage inhibition of contracting effect of CCK-8: -10.6%
[4]; 0.03 mg/kg i.v.
  percentage inhibition of contracting effect of CCK-8: -62.1% and -57.0% and -59.2%
[4]; 0.1 mg/kg
  block of gall bladder contractions induced by CCK-8: can block gall bladder contractions induced by CCK-8
[4]
  ED50: 0.02 mg/kg
Morphine analgesia; 10'
  percentage variation of latency of pain sensation: 67.9 ± 14.3%
Morphine analgesia; 20'
  percentage variation of latency of pain sensation: 71.5 ± 17.6%
Morphine analgesia; 30'
  percentage variation of latency of pain sensation: 79.4%
Morphine analgesia; 45'
  percentage variation of latency of pain sensation: 84.6 ± 10.5%
Morphine analgesia; 60'
  percentage variation of latency of pain sensation: 92.9 ± 4.1%
Morphine analgesia; 90'
  percentage variation of latency of pain sensation: 72.6 ± 7.0%
Morphine analgesia
  M (10-90) ± SE, mean percentage variation of latency: 78.2 ± 9.4%
  Power ratio with respect to morphine alone: 2.62
[2]; 50% antagonism of CCK-8
  active concentration relative to that of CCK-8: about 10 times
[2]
  ED50 (concentration antagonising 50% of contracting effect of CCK-8): 0.06 µg/mL
[3]
  ED50: 16.8 mg/kg

## CCCN(CCC)C(=O)C(CCC(=O)O)NC(=O)c1ccc(C(C)C)cc1 (stereo not drawn) [Compound C-36]
[4]; 10 mg/kg i.v.
  percentage inhibition of contracting effect of CCK-8: 64.8% and 71.6% and 63.3% and 78.7%
[4]; 30 mg/kg i.v.
  percentage inhibition of contracting effect of CCK-8: 100%
[4]
  ED50: 5.1 mg/kg
Biliary flow; 12.5 mg/kg i.v.
  % increase in biliary flow with respect to controls: +15.5%
Biliary flow; 25 mg/kg i.v.
  % increase in biliary flow with respect to controls: +48.5%
Biliary flow; 100 mg/kg i.v.
  % increase in biliary flow with respect to controls: +215.8%
Biliary flow
  ED50: 26.8 mg/kg
Morphine analgesia; 10'
  percentage variation of latency of pain sensation: 8.6%
Morphine analgesia; 20'
  percentage variation of latency of pain sensation: 100.0 ± 0%
Morphine analgesia; 30'
  percentage variation of latency of pain sensation: 96.9 ± 3%
Morphine analgesia; 45'
  percentage variation of latency of pain sensation: 90.0 ± 10%
Morphine analgesia; 60'
  percentage variation of latency of pain sensation: 96.9 ± 3%
Morphine analgesia; 90'
  percentage variation of latency of pain sensation: 92.4 ± 25%
Morphine analgesia
  M (10-90) ± SE, mean percentage variation of latency: 80.8 ± 36%
  Power ratio with respect to morphine alone: 2.71
[2]
  ED50 (concentration antagonising 50% of contracting effect of CCK-8): 13.4 µg/mL
[3]
  ED50: 208 mg/kg

## CCCN(CCC)C(=O)C(CCC(=O)O)NC(=O)c1cccc(C#N)c1 (stereo not drawn) [Compound C-20]
Biliary flow; 12.5 mg/kg i.v.
  % increase in biliary flow with respect to controls: +48.5%
Biliary flow; 25 mg/kg i.v.
  % increase in biliary flow with respect to controls: +63.9%
Biliary flow; 50 mg/kg i.v.
  % increase in biliary flow with respect to controls: +108.0%
Biliary flow
  ED50: 19.4 mg/kg
Morphine analgesia; 10'
  percentage variation of latency of pain sensation: 53.8%
Morphine analgesia; 20'
  percentage variation of latency of pain sensation: 85.7 ± 10.0%
Morphine analgesia; 30'
  percentage variation of latency of pain sensation: 92.0 ± 8.0%
Morphine analgesia; 45'
  percentage variation of latency of pain sensation: 99.1 ± 1.0%
Morphine analgesia; 60'
  percentage variation of latency of pain sensation: 91.2 ± 9.0%
Morphine analgesia; 90'
  percentage variation of latency of pain sensation: 51.2%
Morphine analgesia
  M (10-90) ± SE, mean percentage variation of latency: 78.8 ± 21.0%
  Power ratio with respect to morphine alone: 2.64
[1]; 24 h
  percentage variation in latency time (Effect %): 53.36%
[1]; 48 h
  percentage variation in latency time (Effect %): 48.17%
[1]; 72 h
  percentage variation in latency time (Effect %): 53.67%
[1]; 96 h
  percentage variation in latency time (Effect %): 31.56%
[1]; 120 h
  percentage variation in latency time (Effect %): 41.67%
[1]; 144 h
  percentage variation in latency time (Effect %): 14.48%
[1]; 168 h
  percentage variation in latency time (Effect %): 13.75%
[1]; time 0
  percentage variation in latency time (Effect %): 72.15%
[2]
  ED50 (concentration antagonising 50% of contracting effect of CCK-8): > 200 µg/mL
[3]
  ED50: 77.5 mg/kg
